Source: US8933018B2, “Boron containing polybasic bacterial efflux pump inhibitors and therapeutic uses thereof” (priority 2011, dated 2015)

Tested on: P. aeruginosa, PAM1723, overexpressing the MexAB-OprM efflux pump
Assay type: cell-based, Pseudomonas aeruginosa
Conditions: lowest EPI concentration giving antibacterial activity with levofloxacin at 1/8 of its MIC, MHB, 20 h at 35° C.
Experimental: All EPI compounds were readily soluble in water and stock solutions were prepared at a final concentration of 10 mg/ml. Stock solutions were further diluted, according to the needs of the particular assay, in Mueller Hinton Broth (MHB). Stock solution was stored at […].
The checkerboard assay was performed in microtiter plates. […] EPIs were diluted in the y-axis, each row containing a single concentration of an EPI. […] The assay was performed in MHB with a final bacterial inoculum of 5 times 10^5 CFU/ml (from an early-log phase culture). Microtiter plates were incubated during 20 h at 35° C. and were read using a microtiter plate reader (Molecular Devices) at 650 nm as well as visual observation using a microtiter plate-reading mirror.

Structure (SMILES)	MPC8 (Minimum Potentiating Concentration)
CC1(C)OB(O)c2cc(NC(=O)[C@@H](CCc3ccc(C(F)(F)F)cc3)NC(=O)[C@@H](N)CCC(=O)N3C[C@@H](N)C[C@H]3CN)ccc21 [Compound 41, (S)-2-amino-5-((2S,4S)-4-amino-2-(aminomethyl)pyrrolidin-1-yl)-N-((R)-1-(1-hydroxy-3,3-dimethyl-1,3-dihydrobenzo[c][1,2]oxaborol-6-ylamino)-1-oxo-4-(4-(trifluoromethyl)phenyl)butan-2-yl)-5-oxopentanamide]	B (B = MPC8 of 2.5 μg/ml to less than 10 μg/mL.)
CC1(C)OB(O)c2cc(NC(=O)[C@@H](CCc3ccc(C(F)(F)F)cc3)NC(=O)[C@@H](N)CCC(=O)N3C4CCC3[C@H](CN)[C@@H]4CN)ccc21 [Compound 42, (2S)-2-amino-5-((2R,3S)-2,3-bis(aminomethyl)-7-azabicyclo[2.2.1]heptan-7-yl)-N-((R)-1-(1-hydroxy-3,3-dimethyl-1,3-dihydrobenzo[c][1,2]oxaborol-6-ylamino)-1-oxo-4-(4-(trifluoromethyl)phenyl)butan-2-yl)-5-oxopentanamide]	A (A = MPC8 of less than 2.5 μg/mL.)
NCCN(CCN)C(=O)CC[C@H](N)C(=O)N[C@H](Cc1ccc(C(F)(F)F)cc1)C(=O)Nc1cnc2ccc(B(O)O)cc2c1 [Compound 43, 3-((R)-2-((S)-2-amino-5-(bis(2-aminoethyl)amino)-5-oxopentanamido)-3-(4-(trifluoromethyl)phenyl)propanamido)quinolin-6-ylboronic acid]	B (B = MPC8 of 2.5 μg/ml to less than 10 μg/mL.)
NCCN(CCN)C(=O)CC[C@H](N)C(=O)N[C@H](CCc1ccc(C(F)(F)F)cc1)C(=O)Nc1cnc2ccc(B(O)O)cc2c1 [Compound 44, 3-((R)-2-((S)-2-amino-5-(bis(2-aminoethyl)amino)-5-oxopentanamido)-4-(4-(trifluoromethyl)phenyl)butanamido)quinolin-6-ylboronic acid]	A (A = MPC8 of less than 2.5 μg/mL.)
N[C@@H]1C[C@H](N)C[C@H](NC(=O)CC[C@H](N)C(=O)N[C@H](CCc2ccc(C(F)(F)F)cc2)C(=O)Nc2ccc3c(c2)B(O)OC3)C1 [Compound 66, (S)-2-amino-N^5-((1s,3R,5S)-3,5-diaminocyclohexyl)-N^1-((R)-1-(1-hydroxy-1,3-dihydrobenzo[c][1,2]oxaborol-6-ylamino)-1-oxo-4-(4-(trifluoromethyl)phenyl)butan-2-yl)pentanediamide]	B (B = MPC8 of 2.5 μg/ml to less than 10 μg/mL.)
CC1(C)OB(O)c2cc(NC(=O)[C@@H](Cc3ccc(C(F)(F)F)cc3)NC(=O)[C@@H](N)CCC(=O)N3C[C@H](N)C[C@H](N)C3)ccc21 [Compound 67, (S)-2-amino-5-((3R,5S)-3,5-diaminopiperidin-1-yl)-N-((R)-1-(1-hydroxy-3,3-dimethyl-1,3-dihydrobenzo[c][1,2]oxaborol-6-ylamino)-1-oxo-3-(4-(trifluoromethyl)phenyl)propan-2-yl)-5-oxopentanamide]	B (B = MPC8 of 2.5 μg/ml to less than 10 μg/mL.)
CC1(C)OB(O)c2cc(NC(=O)[C@@H](Cc3ccc(C(F)(F)F)cc3)NC(=O)[C@@H](N)CCC(=O)N3C[C@@H](N)C[C@H](N)C3)ccc21 [Compound 74, (S)-2-amino-5-((3S,5S)-3,5-diaminopiperidin-1-yl)-N-((R)-1-(1-hydroxy-3,3-dimethyl-1,3-dihydrobenzo[c][1,2]oxaborol-6-ylamino)-1-oxo-3-(4-(trifluoromethyl)phenyl)propan-2-yl)-5-oxopentanamide]	B (B = MPC8 of 2.5 μg/ml to less than 10 μg/mL.)
CC1(C)OB(O)c2cc(NC(=O)[C@@H](Cc3ccc(C(F)(F)F)cc3)NC(=O)[C@@H](N)CCC(=O)N3C[C@@H](N)C[C@H]3CN)ccc21 [Compound 75, (S)-2-amino-5-((2S,4S)-4-amino-2-(aminomethyl)pyrrolidin-1-yl)-N-((R)-1-(1-hydroxy-3,3-dimethyl-1,3-dihydrobenzo[c][1,2]oxaborol-6-ylamino)-1-oxo-3-(4-(trifluoromethyl)phenyl)propan-2-yl)-5-oxopentanamide]	B (B = MPC8 of 2.5 μg/ml to less than 10 μg/mL.)
CC(C)c1ccc(C[C@@H](NC(=O)[C@@H](N)CCC(=O)N(CCN)CCN)C(=O)Nc2ccc3c(c2)B(O)OC3(C)C)cc1 [Compound 78, (S)-2-amino-N5,N5-bis(2-aminoethyl)-N^1-((R)-1-(1-hydroxy-3,3-dimethyl-1,3-dihydrobenzo[c][1,2]oxaborol-6-ylamino)-3-(4-isopropylphenyl)-1-oxopropan-2-yl)pentanediamide]	A (A = MPC8 of less than 2.5 μg/mL.)
CC1(C)OB(O)c2ccc(NC(=O)[C@@H](Cc3ccc(C(F)(F)F)cc3)NC(=O)[C@@H](N)CCC(=O)N(CCN)CCN)cc21 [Compound 84, (S)-2-amino-N^5,N^5-bis(2-aminoethyl)-N^1-((R)-1-(1-hydroxy-3,3-dimethyl-1,3-dihydrobenzo[c][1,2]oxaborol-5-ylamino)-1-oxo-3-(4-(trifluoromethyl)phenyl)propan-2-yl)pentanediamide]	B (B = MPC8 of 2.5 μg/ml to less than 10 μg/mL.)
CC1(C)OB(O)c2ccc(CNC(=O)[C@@H](Cc3ccc(C(F)(F)F)cc3)NC(=O)[C@@H](N)CCC(=O)N(CCN)CCN)cc21 [Compound 90, (S)-2-amino-N^5,N^5-bis(2-aminoethyl)-N^1-((R)-1-((1-hydroxy-3,3-dimethyl-1,3-dihydrobenzo[c][1,2]oxaborol-5-yl)methylamino)-1-oxo-3-(4-(trifluoromethyl)phenyl)propan-2-yl)pentanediamide]	B (B = MPC8 of 2.5 μg/ml to less than 10 μg/mL.)
CC1(C)OB(O)c2ccc(CNC(=O)[C@@H](CCc3ccc(C(F)(F)F)cc3)NC(=O)[C@@H](N)CCC(=O)N(CCN)CCN)cc21 [Compound 93, (S)-2-amino-N^5,N^5-bis(2-aminoethyl)-N^1-((R)-1-((1-hydroxy-3,3-dimethyl-1,3-dihydrobenzo[c][1,2]oxaborol-5-yl)methylamino)-1-oxo-4-(4-(trifluoromethyl)phenyl)butan-2-yl)pentanediamide]	B (B = MPC8 of 2.5 μg/ml to less than 10 μg/mL.)
CC1(C)OB(O)c2ccc(NC(=O)[C@@H](CCc3ccc(C(F)(F)F)cc3)NC(=O)[C@@H](N)CCC(=O)N(CCN)CCN)cc21 [Compound 94, (S)-2-amino-N^5,N^5-bis(2-aminoethyl)-N^1-((R)-1-(1-hydroxy-3,3-dimethyl-1,3-dihydrobenzo[c][1,2]oxaborol-5-ylamino)-1-oxo-4-(4-(trifluoromethyl)phenyl)butan-2-yl)pentanediamide]	A (A = MPC8 of less than 2.5 μg/mL.)
CC1(C)OB(O)c2ccc(NC(=O)[C@@H](Cc3ccc(C(F)(F)F)cc3)NC(=O)[C@@H](N)CCC(=O)NC(CN)CN)cc21 [Compound 95, (S)-2-amino-N^5-(1,3-diaminopropan-2-yl)-N^1-((R)-1-(1-hydroxy-3,3-dimethyl-1,3-dihydrobenzo[c][1,2]oxaborol-5-ylamino)-1-oxo-3-(4-(trifluoromethyl)phenyl)propan-2-yl)pentanediamide]	B (B = MPC8 of 2.5 μg/ml to less than 10 μg/mL.)
CC1(C)OB(O)c2ccc(NC(=O)[C@@H](CCc3ccc(C(F)(F)F)cc3)NC(=O)[C@@H](N)CCC(=O)NC(CN)CN)cc21 [Compound 96, (S)-2-amino-N^5-(1,3-diaminopropan-2-yl)-N^1-((R)-1-(1-hydroxy-3,3-dimethyl-1,3-dihydrobenzo[c][1,2]oxaborol-5-ylamino)-1-oxo-4-(4-(trifluoromethyl)phenyl)butan-2-yl)pentanediamide]	A (A = MPC8 of less than 2.5 μg/mL.)
CC1(C)OB(O)c2ccc(NC(=O)[C@@H](COc3ccc(C(F)(F)F)cc3)NC(=O)[C@@H](N)CCC(=O)NC(CN)CN)cc21 [Compound 97, (S)-2-amino-N^5-(1,3-diaminopropan-2-yl)-N^1-((R)-1-(1-hydroxy-3,3-dimethyl-1,3-dihydrobenzo[c][1,2]oxaborol-5-ylamino)-1-oxo-3-(4-(trifluoromethyl)phenoxy)propan-2-yl)pentanediamide]	B (B = MPC8 of 2.5 μg/ml to less than 10 μg/mL.)
CC1(C)OB(O)c2ccc(NC(=O)[C@@H](CSc3ccc(C(F)(F)F)cc3)NC(=O)[C@@H](N)CCC(=O)NC(CN)CN)cc21 [Compound 98, (S)-2-amino-N^5-(1,3-diaminopropan-2-yl)-N^1-((S)-1-(1-hydroxy-3,3-dimethyl-1,3-dihydrobenzo[c][1,2]oxaborol-5-ylamino)-1-oxo-3-(4-(trifluoromethyl)phenylthio)propan-2-yl)pentanediamide]	B (B = MPC8 of 2.5 μg/ml to less than 10 μg/mL.)
CC1(C)OB(O)c2c(NC(=O)[C@@H](Cc3ccc(C(F)(F)F)cc3)NC(=O)[C@@H](N)CCC(=O)N(CCN)CCN)cccc21 [Compound 101, (S)-2-amino-N^5,N^5-bis(2-aminoethyl)-N^1-((R)-1-(1-hydroxy-3,3-dimethyl-1,3-dihydrobenzo[c][1,2]oxaborol-7-ylamino)-1-oxo-3-(4-(trifluoromethyl)phenyl)propan-2-yl)pentanediamide]	B (B = MPC8 of 2.5 μg/ml to less than 10 μg/mL.)
CC1(C)OB(O)c2c(NC(=O)[C@@H](CCc3ccc(C(F)(F)F)cc3)NC(=O)[C@@H](N)CCC(=O)N(CCN)CCN)cccc21 [Compound 102, (S)-2-amino-N^5,N^5-bis(2-aminoethyl)-N^1-((R)-1-(1-hydroxy-3,3-dimethyl-1,3-dihydrobenzo[c][1,2]oxaborol-7-ylamino)-1-oxo-4-(4-(trifluoromethyl)phenyl)butan-2-yl)pentanediamide]	B (B = MPC8 of 2.5 μg/ml to less than 10 μg/mL.)
